The record followed here is patent US20240132431A1, “METHOD FOR ALKYLATING ACIDIC FUNCTIONAL GROUP” (Chugai Seiyaku Kabushiki Kaisha, priority 2021, published 2024).

This experiment has as its target T1, Bcl-2 protein (Recombinant Human Bcl-2 Protein) (Homo sapiens, UniProt P10415).
T1 construct: purchased Novus NBP2-34889
In words: Binding evaluation of mixture library compounds to Bcl-2 using AS-MS (affinity selection mass spectrometry). The note with it: for ASMS ratio (%) n = 1 / ASMS ratio (%) n = 2: ASMS Ratio(%)=(A−C)/B×100; for ASMS ratio (%) n = 1: replicate n = 1; for ASMS ratio (%) n = 2: replicate n = 2. The method in brief: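 Affinity selection MS: Bcl-2 20 μM + 1200-cpd mixture, […]/cpd, Tris pH 7.4 buffer w/ Tween-20, DTT; 1 h 23° C dark; P-2 spin SEC; MeCN/MeOH extraction; RP LC/MS. ASMS Ratio(%) = (A−C)/B×100.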

[1] abbreviates: AS-MS, mixture of 1200 compounds, Bcl-2.
[2] abbreviates: AS-MS on the mixture of 1200 library compounds.

T1 sequence (P10415 whole entry): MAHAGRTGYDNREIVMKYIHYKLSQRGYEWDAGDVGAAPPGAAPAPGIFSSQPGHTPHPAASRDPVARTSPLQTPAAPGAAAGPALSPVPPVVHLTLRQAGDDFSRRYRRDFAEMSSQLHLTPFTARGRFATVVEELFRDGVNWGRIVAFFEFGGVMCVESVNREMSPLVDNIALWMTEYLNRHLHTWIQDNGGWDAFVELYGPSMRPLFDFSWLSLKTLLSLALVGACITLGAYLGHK

Consider `CCOc1cncc(-c2ccc(CN3CCN(c4ccc(C(=O)NS(=O)(=O)CCC(F)(F)F)cc4)CC3)cc2C)c1` [B2N048-01, 4-[4-[[4-(5-Ethoxypyridin-3-yl)-3-methylphenyl]methyl]piperazin-1-yl]-N-(3,3,3-trifluoropropylsulfonyl)benzamide], for which the “ASMS ratio (%)” value is, setting by setting: (n = 1) 0.0%; (n = 2) −0.7%. “6-[4-[3-[2-(5-Ethoxypyridin-3-yl)phenyl]propanoyl]piperazin-1-yl]-N-propylpyridazine-3-carboxamide [B1M077-01]”: under setting [1], the “ASMS ratio (%) n = 1” value is −0.7% and the “ASMS ratio (%) n = 2” value was determined as 3.1%. As to `CCOc1cncc(-c2ccc(CN3CCN(c4ccc(C(=O)NS(=O)(=O)CCC(F)(F)F)nn4)CC3)c(OC)c2)c1` [B2N080-01], the “ASMS ratio (%)” value by setting is: (n = 1) 0.0%; (n = 2) 0.0%. On to `CCOc1cccc(-c2cc(CN3CCN(c4ccc(C(=O)NS(=O)(=O)CCC(F)(F)F)nn4)CC3)cc(OC(C)C)c2)c1` [B2N083-01, 6-[4-[[3-(3-Ethoxyphenyl)-5-propan-2-yloxyphenyl]methyl]piperazin-1-yl]-N-(3,3,3-trifluoropropylsulfonyl)pyridazine-3-carboxamide], for which the “ASMS ratio (%)” value by setting is: (n = 1) 0.0%; (n = 2) 0.0%. In the case of `CCOc1cccc(-c2ccc(C(=O)N3CCN(c4ccc(C(=O)NCC(F)(F)F)nn4)CC3)cc2C)c1` [B1K003-01, 6-[4-[4-(3-Ethoxyphenyl)-3-methylbenzoyl]piperazin-1-yl]-N-(2,2,2-trifluoroethyl)pyridazine-3-carboxamide], under setting [1], the “ASMS ratio (%) n = 1” value was 0.1% and the “ASMS ratio (%) n = 2” value was −0.2%. For `CCOc1cccc(-c2cc(C(=O)N3CCN(c4ccc(C(=O)NS(=O)(=O)C(C)(C)C)cc4)CC3)cc(C(F)(F)F)c2)c1` [B2L039-01, N-tert-Butylsulfonyl-4-[4-[3-(3-ethoxyphenyl)-5-(trifluoromethyl)benzoyl]piperazin-1-yl]benzamide], the “ASMS ratio (%)” value is recorded as 0.0% (n = 1) and 0.0% (n = 2). Turning to `CCOc1cncc(C#Cc2cc(C(=O)N3CCN(c4ccc(C(=O)NS(=O)(=O)CC56CC7CC(CC(C7)C5)C6)cc4)CC3)cc(C(F)(F)F)c2)c1` [B2A042-01, N-(1-Adamantylmethylsulfonyl)-4-[4-[3-[2-(5-ethoxypyridin-3-yl)ethynyl]-5-(trifluoromethyl)benzoyl]piperazin-1-yl]benzamide], for the setting “AS-MS, mixture library, Bcl-2”, the “ASMS ratio (%) n = 1” value was 10.1% and the “ASMS ratio (%) n = 2” value is reported as −0.9%. Taken in the same sequence, the figures for `CCOc1cncc(-c2ccc(C(=O)N3CCN(c4ccc(C(=O)NS(C)(=O)=O)cc4)CC3)cc2F)c1` [B2I028-01, 4-[4-[4-(5-Ethoxypyridin-3-yl)-3-fluorobenzoyl]piperazin-1-yl]-N-methylsulfonylbenzamide] were 0.0% and 0.0%. Regarding `CCOc1cncc(-c2cnn(-c3cc(C(=O)N4CCN(c5ccc(C(=O)N(C)CC67CC8CC(CC(C8)C6)C7)nn5)CC4)cc(C(F)(F)F)c3)c2)c1` [B3A022-01, N-(1-Adamantylmethyl)-6-[4-[3-[4-(5-ethoxypyridin-3-yl)pyrazol-1-yl]-5-(trifluoromethyl)benzoyl]piperazin-1-yl]-N-methylpyridazine-3-carboxamide], under setting [2], the “ASMS ratio (%) n = 1” value is recorded as 4.9% and the “ASMS ratio (%) n = 2” value is on record as 7.2%. For `CCOc1cccc(-c2ccc(CN3CCN(c4ccc(C(=O)N(C)CC56CC7CC(CC(C7)C5)C6)nn4)CC3)c3ccccc23)c1` [B3A091-01, N-(1-Adamantylmethyl)-6-[4-[[4-(3-ethoxyphenyl)naphthalen-1-yl]methyl]piperazin-1-yl]-N-methylpyridazine-3-carboxamide], under setting [2], the “ASMS ratio (%) n = 1” value is listed as −1.0% and the “ASMS ratio (%) n = 2” value is given as −16.5%. Take `CCOc1cncc(-c2ccc(CN3CCN(c4ccc(C(=O)NS(=O)(=O)C(C)(C)C)nn4)CC3)c(CC)c2)c1` [B2L076-01, N-tert-Butylsulfonyl-6-[4-[[4-(5-ethoxypyridin-3-yl)-2-ethylphenyl]methyl]piperazin-1-yl]pyridazine-3-carboxamide]: the “ASMS ratio (%)” value (n = 1) is reported as 1.8% and the “ASMS ratio (%)” value (n = 2) is listed as −0.3%.

In the case of `CCOc1cccc(-c2cc(C(=O)N3CCN(c4ccc(C(=O)NS(=O)(=O)c5ccc(NCCSc6ccccc6)c(C(F)(F)F)c5)nn4)CC3)cc(C(F)(F)F)c2)c1` [B2R017-01, 6-[4-[3-(3-ethoxyphenyl)-5-(trifluoromethyl)benzoyl]piperazin-1-yl]-N-[4-(2-phenylsulfanylethylamino)-3-(trifluoromethyl)phenyl]sulfonylpyridazine-3-carboxamide], the “ASMS ratio (%)” value runs as follows: (n = 1) 32.9%; (n = 2) 27.2%. For the compound `CCOc1cccc(-c2cc(CN3CCN(c4ccc(C(=O)NS(C)(=O)=O)nn4)CC3)cc(OCC)c2)c1` [B2I081-01], the “ASMS ratio (%)” value by setting is: (n = 1) 0.0%; (n = 2) 0.0%.

Take `CCOc1cccc(-c2ccc(C(=O)N3CCN(c4ccc(C(=O)NS(=O)(=O)c5ccc(NCCSc6ccccc6)c([N+](=O)[O-])c5)cc4)CC3)cc2F)c1` [B2Q027-01, 4-[4-[4-(3-Ethoxyphenyl)-3-fluorobenzoyl]piperazin-1-yl]-N-[3-nitro-4-(2-phenylsulfanylethylamino)phenyl]sulfonylbenzamide]: where the note is “AS-MS, mixture library, Bcl-2”, the “ASMS ratio (%) n = 1” value stood at 0.2% and the “ASMS ratio (%) n = 2” value is −2.5%. With `CCOc1cccc(-c2cc(CN3CCN(c4ccc(C(=O)N(CC)CC)cc4)CC3)cc(OCC)c2)c1` [B4J055-01, 4-[4-[[3-Ethoxy-5-(3-ethoxyphenyl)phenyl]methyl]piperazin-1-yl]-N,N-diethylbenzamide], under setting [2], the “ASMS ratio (%) n = 1” value is reported as −0.7% and the “ASMS ratio (%) n = 2” value is on record as 1.4%.

With `CCOc1cccc(-c2ccccc2CCC(=O)N2CCN(c3ccc(C(=O)Nc4ccc(OC)cc4)cc3)CC2)c1` [B1O033-01, 4-[4-[3-[2-(3-Ethoxyphenyl)phenyl]propanoyl]piperazin-1-yl]-N-(4-methoxyphenyl)benzamide], under setting [2], the “ASMS ratio (%) n = 1” value stood at 1.9% and the “ASMS ratio (%) n = 2” value was found to be 4.2%. Regarding `CCOc1cccc(-c2ccc(CN3CCN(c4ccc(C(=O)NS(=O)(=O)c5ccc(NCCSc6ccccc6)c([N+](=O)[O-])c5)cc4)CC3)c(CC)c2)c1` [B2Q049-01, 4-[4-[[4-(3-Ethoxyphenyl)-2-ethylphenyl]methyl]piperazin-1-yl]-N-[3-nitro-4-(2-phenylsulfanylethylamino)phenyl]sulfonylbenzamide], under “AS-MS, mixture library, Bcl-2”, the “ASMS ratio (%) n = 1” value is reported as −2.4% and the “ASMS ratio (%) n = 2” value is −4.8%.

Turning to `CCOc1cncc(-c2ccccc2CCC(=O)N2CCN(c3ccc(C(=O)NCC45CC6CC(CC(C6)C4)C5)nn3)CC2)c1` [B1A012-01, N-(1-Adamantylmethyl)-6-[4-[3-[2-(5-ethoxypyridin-3-yl)phenyl]propanoyl]piperazin-1-yl]pyridazine-3-carboxamide], under setting [1], the “ASMS ratio (%) n = 1” value is 0.0% and the “ASMS ratio (%) n = 2” value was found to be 0.0%. `CCOc1cccc(-c2cc(OC)c(CN3CCN(c4ccc(C(=O)NCC(F)(F)F)cc4)CC3)c(OC)c2)c1` [B1K059-01]: under setting [1], the “ASMS ratio (%) n = 1” value is reported as 3.0% and the “ASMS ratio (%) n = 2” value was −1.9%. Take `CCOc1cncc(-c2ccc(C(C)N3CCN(c4ccc(C(=O)NS(=O)(=O)CCC(F)(F)F)cc4)CC3)cc2)c1` (stereo not shown) [B2N098-01, 4-[4-[1-[4-(5-Ethoxypyridin-3-yl)phenyl]ethyl]piperazin-1-yl]-N-(3,3,3-trifluoropropylsulfonyl)benzamide]: the “ASMS ratio (%)” value is 0.0% (n = 1) and −0.7% (n = 2). Consider `CCOc1cncc(-c2cc(OC)c(CN3CCN(c4ccc(C(=O)N(C)CC56CC7CC(CC(C7)C5)C6)nn4)CC3)c(OC)c2)c1` [B3A086-01, N-(1-Adamantylmethyl)-6-[4-[[4-(5-ethoxypyridin-3-yl)-2,6-dimethoxyphenyl]methyl]piperazin-1-yl]-N-methylpyridazine-3-carboxamide], for which, under setting [2], the “ASMS ratio (%) n = 1” value is recorded as −2.7% and the “ASMS ratio (%) n = 2” value is −1.9%. For the compound `CCOc1cncc(-c2cc(CN3CCN(c4ccc(C(=O)NS(=O)(=O)C(C)(C)C)nn4)CC3)cc(OC(F)(F)F)c2)c1` [B2L090-01, N-tert-Butylsulfonyl-6-[4-[[3-(5-ethoxypyridin-3-yl)-5-(trifluoromethoxy)phenyl]methyl]piperazin-1-yl]pyridazine-3-carboxamide], the “ASMS ratio (%)” value was 0.0% (n = 1) and 0.0% (n = 2). Turning to `CCOc1cccc(-c2ccc(C(=O)N3CCN(c4ccc(C(=O)NS(=O)(=O)C(C)(C)C)cc4)CC3)cc2C)c1` [B2L025-01, N-tert-Butylsulfonyl-4-[4-[4-(3-ethoxyphenyl)-3-methylbenzoyl]piperazin-1-yl]benzamide], the “ASMS ratio (%)” value (n = 1) is given as 0.0% and the “ASMS ratio (%)” value (n = 2) turned out to be 0.0%. Turning to `CCOc1cncc(-c2cc(CN3CCN(c4ccc(C(=O)N(C)CC56CC7CC(CC(C7)C5)C6)cc4)CC3)cc(OCC)c2)c1` [B3A056-01, N-(1-Adamantylmethyl)-4-[4-[[3-ethoxy-5-(5-ethoxypyridin-3-yl)phenyl]methyl]piperazin-1-yl]-N-methylbenzamide], the “ASMS ratio (%) n = 2” value under setting [2] turned out to be 0.0%. On to `CCOc1cncc(-c2cc(CN3CCN(c4ccc(C(=O)Nc5ccc(OC)cc5)cc4)CC3)cc(OCC)c2)c1` [B1O056-01, 4-[4-[[3-Ethoxy-5-(5-ethoxypyridin-3-yl)phenyl]methyl]piperazin-1-yl]-N-(4-methoxyphenyl)benzamide], for which, under setting [2], the “ASMS ratio (%) n = 1” value came to 6.7% and the “ASMS ratio (%) n = 2” value is recorded as −0.9%.
